Test system: 485368-065-R4-J2-PDC spheroids with HUVEC/MSC, viability
Assay: Anticancer human tumor 485368-065-R4-J2-PDC patient-derived pancreatic carcinoma cell line growth inhibition [CLK]
Settings: for viability, T/C: stronger effect = lower value
Procedure, shortened: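 Patient-derived tumor cells grown as complex spheroids with HUVEC endothelial cells and mesenchymal stem cells, treated with drug combinations. Concentrations descend in half-log steps from near clinical Cmax, or from 10 microM if Cmax unknown.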

[1] = curve of first compound, second compound 0.0316 µM
[2] = curve of first compound, second compound 0.1 µM
[3] = curve of first compound, second compound 0.316 µM
[4] = curve of first compound, second compound 1 µM
[5] = curve of first compound, second compound 3.16 µM
[6] = curve of first compound, second compound 10 µM
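Note: spheroids exposed to compounds for seven days.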
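Throughout, for viability, T/C: 100% = DMSO vehicle control wells.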

Question: How did the IC50 [1] turn out when `NC(=O)C(=Cn1cnc(-c2cc(C(F)(F)F)cc(C(F)(F)F)c2)n1)c1cncnc1` + CNC(=O)c1ccc(Nc2nc(OC3CCCC3)c3c(-c4ccc5nc(C)oc5c4)c[nH]c3n2)c(OC)c1 was run?
Answer: > 3 µM

Question: And the IC50 [2]?
Answer: > 3 µM

Question: What about the IC50 [3] of the same compound?
Answer: > 3 µM

Question: What about the IC50 [4] of the same compound?
Answer: > 3 µM

Question: And the IC50 [5]?
Answer: > 3 µM

Question: What about the IC50 [6] of the same compound?
Answer: 2.59 µM

Question: And the viability, T/C (second compound 0.0316 µM, first compound 0.00949 µM)?
Answer: 95%

Question: And the viability, T/C (second compound 0.0316 µM, first compound 0.03 µM)?
Answer: 130%

Question: What about the viability, T/C (second compound 0.0316 µM, first compound 0.0949 µM) of the same compound?
Answer: 179%

Question: And the viability, T/C (second compound 0.0316 µM, first compound 0.3 µM)?
Answer: 195%

Question: What about the viability, T/C (second compound 0.0316 µM, first compound 0.949 µM) of the same compound?
Answer: 176%

Question: And the viability, T/C (second compound 0.0316 µM, first compound 3 µM)?
Answer: 128%

Question: And the viability, T/C (second compound 0.1 µM, first compound 0.00949 µM)?
Answer: 96.4%

Question: What about the viability, T/C (second compound 0.1 µM, first compound 0.03 µM) of the same compound?
Answer: 108%

Question: What about the viability, T/C (second compound 0.1 µM, first compound 0.0949 µM) of the same compound?
Answer: 173%

Question: What about the viability, T/C (second compound 0.1 µM, first compound 0.3 µM) of the same compound?
Answer: 177%

Question: What about the viability, T/C (second compound 0.1 µM, first compound 0.949 µM) of the same compound?
Answer: 171%

Question: And the viability, T/C (second compound 0.1 µM, first compound 3 µM)?
Answer: 97.5%

Question: And the viability, T/C (second compound 0.316 µM, first compound 0.00949 µM)?
Answer: 98.1%

Question: What about the viability, T/C (second compound 0.316 µM, first compound 0.03 µM) of the same compound?
Answer: 116%

Question: And the viability, T/C (second compound 0.316 µM, first compound 0.0949 µM)?
Answer: 160%

Question: What about the viability, T/C (second compound 0.316 µM, first compound 0.3 µM) of the same compound?
Answer: 154%

Question: What about the viability, T/C (second compound 0.316 µM, first compound 0.949 µM) of the same compound?
Answer: 139%

Question: And the viability, T/C (second compound 0.316 µM, first compound 3 µM)?
Answer: 74.3%

Question: What about the viability, T/C (second compound 1 µM, first compound 0.00949 µM) of the same compound?
Answer: 82.2%

Question: And the viability, T/C (second compound 1 µM, first compound 0.03 µM)?
Answer: 114%

Question: And the viability, T/C (second compound 1 µM, first compound 0.0949 µM)?
Answer: 141%

Question: And the viability, T/C (second compound 1 µM, first compound 0.3 µM)?
Answer: 132%

Question: And the viability, T/C (second compound 1 µM, first compound 0.949 µM)?
Answer: 99.4%

Question: And the viability, T/C (second compound 1 µM, first compound 3 µM)?
Answer: 62.5%

Question: What about the viability, T/C (second compound 3.16 µM, first compound 0.00949 µM) of the same compound?
Answer: 80.3%

Question: And the viability, T/C (second compound 3.16 µM, first compound 0.03 µM)?
Answer: 114%

Question: And the viability, T/C (second compound 3.16 µM, first compound 0.0949 µM)?
Answer: 123%

Question: And the viability, T/C (second compound 3.16 µM, first compound 0.3 µM)?
Answer: 113%

Question: What about the viability, T/C (second compound 3.16 µM, first compound 0.949 µM) of the same compound?
Answer: 87.6%

Question: And the viability, T/C (second compound 3.16 µM, first compound 3 µM)?
Answer: 59.3%

Question: And the viability, T/C (second compound 10 µM, first compound 0.00949 µM)?
Answer: 69.4%

Question: What about the viability, T/C (second compound 10 µM, first compound 0.03 µM) of the same compound?
Answer: 98.3%

Question: And the viability, T/C (second compound 10 µM, first compound 0.0949 µM)?
Answer: 124%

Question: What about the viability, T/C (second compound 10 µM, first compound 0.3 µM) of the same compound?
Answer: 98.5%

Question: And the viability, T/C (second compound 10 µM, first compound 0.949 µM)?
Answer: 80.8%

Question: What about the viability, T/C (second compound 10 µM, first compound 3 µM) of the same compound?
Answer: 45.4%

Question: Which viability, T/C (compound 0.0316 µM) does the source give for `CNC(=O)c1ccc(Nc2nc(OC3CCCC3)c3c(-c4ccc5nc(C)oc5c4)c[nH]c3n2)c(OC)c1` here?
Answer: 91.6% [middle of 12 runs]

Question: What about the viability, T/C (compound 0.1 µM) of the same compound?
Answer: 96.7% [middle of 12 runs]

Question: And the viability, T/C (compound 0.316 µM)?
Answer: 82.6% [middle of 12 runs]

Question: And the viability, T/C (compound 1 µM)?
Answer: 70.9% [middle of 12 runs]

Question: What about the viability, T/C (compound 3.16 µM) of the same compound?
Answer: 71.5% [middle of 12 runs]

Question: And the viability, T/C (compound 10 µM)?
Answer: 76.5% [middle of 12 runs]

Question: What about the IC50 (compound alone, run of 08/15/2023) of the same compound?
Answer: > 10 µM

Question: How did the IC50 [1] turn out when `CC1(C)CCC(CN2CCN(c3ccc(C(=O)NS(=O)(=O)c4ccc(NCC5CCOCC5)c([N+](=O)[O-])c4)c(Oc4cnc5[nH]ccc5c4)c3)CC2)=C(c2ccc(Cl)cc2)C1` + CNC(=O)c1ccc(Nc2nc(OC3CCCC3)c3c(-c4ccc5nc(C)oc5c4)c[nH]c3n2)c(OC)c1 was run?
Answer: 7.11 µM

Question: What about the IC50 [2] of the same compound?
Answer: 7.32 µM

Question: And the IC50 [3]?
Answer: 6.86 µM

Question: What about the IC50 [4] of the same compound?
Answer: 6.75 µM

Question: What about the IC50 [5] of the same compound?
Answer: 6.51 µM

Question: And the IC50 [6]?
Answer: 6.43 µM

Question: And the viability, T/C (second compound 0.0316 µM, first compound 0.0316 µM)?
Answer: 101%

Question: What about the viability, T/C (second compound 0.0316 µM, first compound 0.1 µM) of the same compound?
Answer: 95.1%

Question: And the viability, T/C (second compound 0.0316 µM, first compound 0.316 µM)?
Answer: 85.5%

Question: What about the viability, T/C (second compound 0.0316 µM, first compound 1 µM) of the same compound?
Answer: 102%

Question: And the viability, T/C (second compound 0.0316 µM, first compound 3.16 µM)?
Answer: 117%

Question: And the viability, T/C (second compound 0.0316 µM, first compound 10 µM)?
Answer: 28.9%

Question: And the viability, T/C (second compound 0.1 µM, first compound 0.0316 µM)?
Answer: 98.2%

Question: And the viability, T/C (second compound 0.1 µM, first compound 0.1 µM)?
Answer: 97.6%

Question: And the viability, T/C (second compound 0.1 µM, first compound 0.316 µM)?
Answer: 98.3%

Question: And the viability, T/C (second compound 0.1 µM, first compound 1 µM)?
Answer: 105%

Question: What about the viability, T/C (second compound 0.1 µM, first compound 3.16 µM) of the same compound?
Answer: 107%

Question: And the viability, T/C (second compound 0.1 µM, first compound 10 µM)?
Answer: 30.8%

Question: What about the viability, T/C (second compound 0.316 µM, first compound 0.0316 µM) of the same compound?
Answer: 86.7%

Question: What about the viability, T/C (second compound 0.316 µM, first compound 0.1 µM) of the same compound?
Answer: 89.8%

Question: What about the viability, T/C (second compound 0.316 µM, first compound 0.316 µM) of the same compound?
Answer: 93.4%

Question: What about the viability, T/C (second compound 0.316 µM, first compound 1 µM) of the same compound?
Answer: 89.5%

Question: What about the viability, T/C (second compound 0.316 µM, first compound 3.16 µM) of the same compound?
Answer: 97.1%

Question: What about the viability, T/C (second compound 0.316 µM, first compound 10 µM) of the same compound?
Answer: 29.9%

Question: What about the viability, T/C (second compound 1 µM, first compound 0.0316 µM) of the same compound?
Answer: 74.6%

Question: What about the viability, T/C (second compound 1 µM, first compound 0.1 µM) of the same compound?
Answer: 76%

Question: What about the viability, T/C (second compound 1 µM, first compound 0.316 µM) of the same compound?
Answer: 80.7%

Question: And the viability, T/C (second compound 1 µM, first compound 1 µM)?
Answer: 87.2%

Question: And the viability, T/C (second compound 1 µM, first compound 3.16 µM)?
Answer: 98.7%

Question: What about the viability, T/C (second compound 1 µM, first compound 10 µM) of the same compound?
Answer: 32.6%

Question: And the viability, T/C (second compound 3.16 µM, first compound 0.0316 µM)?
Answer: 74%

Question: What about the viability, T/C (second compound 3.16 µM, first compound 0.1 µM) of the same compound?
Answer: 73.9%

Question: What about the viability, T/C (second compound 3.16 µM, first compound 0.316 µM) of the same compound?
Answer: 74%

Question: What about the viability, T/C (second compound 3.16 µM, first compound 1 µM) of the same compound?
Answer: 73.5%

Question: What about the viability, T/C (second compound 3.16 µM, first compound 3.16 µM) of the same compound?
Answer: 93.5%

Question: What about the viability, T/C (second compound 3.16 µM, first compound 10 µM) of the same compound?
Answer: 33.5%

Question: And the viability, T/C (second compound 10 µM, first compound 0.0316 µM)?
Answer: 72.6%

Question: What about the viability, T/C (second compound 10 µM, first compound 0.1 µM) of the same compound?
Answer: 72%

Question: And the viability, T/C (second compound 10 µM, first compound 0.316 µM)?
Answer: 62.2%

Question: And the viability, T/C (second compound 10 µM, first compound 1 µM)?
Answer: 72.6%

Question: And the viability, T/C (second compound 10 µM, first compound 3.16 µM)?
Answer: 90.8%

Question: What about the viability, T/C (second compound 10 µM, first compound 10 µM) of the same compound?
Answer: 35.2%

Source: PubChem BioAssay AID2060617 (Molecular Pharmacology Branch, DTP, NCI, 2025)
